# Results taken from patent US20160120886A1, “PREVENTION, TREATMENT, AND AMELIORATION OF RADIATION INDUCED ENTERITIS” (priority 2004, published 2016).
# Tests used:
# [1] = cited from earlier work
# [2] = cited from earlier work; remark: listed apart in the source
# radiation enteritis [3] = assay: Clinical trial of balsalazide to treat radiation enteritis; assay type: in vivo, human; conditions: patients on pelvic radiotherapy
# Protocol: Subjects included patients treated for FIGO stage IB2-IVA cervical cancer, AJCC Stage T1-3 MO prostate cancer, or biochemical failure after prostatectomy. Radiotherapy was delivered to the subjects in a 4-field technique to at least 40 Gy, and tumor dose was at least 64 Gy for prostate patients, and 75 Gy for cervical patients. Brachytherapy boost was permitted. Patients were given 2250 mg of BSZ or an Identical-appearing placebo twice daily beginning 5 days prior to radiotherapy, and continuing for 2 weeks after completion. Toxicities were graded weekly according to NCI Common Toxicity Criteria, for each of the following: proctitis, diarrhea, dysuria, weight loss, fatigue, nausea, and vomiting. A symptom index was formulated for each toxicity consisting of the toxicity's numeric grade multiplied by the number of days it was experienced, and summed for each grade. Thus, a patient with 7 days of grade 1 proctitis, 14 days of grade 2 proctitis, and 7 days of grade 3 proctitis [(1*7)+(2*14)+(3*7)] would have a proctitis index of 56. A higher Index indicates worse toxicity. Patients were randomized by sealed envelope decision, with only the protocol coordinator aware of the results of randomization. After randomization, the study drug or identical-appearing placebo was given to the study subject with instructions concerning dosage and administration schedule. As stated above, the toxicity was assessed weekly during the course of radiation treatment, then for a period of at least six months after completion of radiotherapy. National Cancer Institute (NCI) common toxicity criteria were used to grade the severity of radiation-induced acute bowel toxicity. Diarrhea was used as the primary endpoint and was assessed as follows: Grade 0—no diarrhea or increased stool frequency Grade 1—increase of 2-3 stools/day Grade 2—increase of 4-6 stools/day or nocturnal stool Grade 3—increase of 7-9 stools/day or incontinence Grade 4—increase of >10 stools/day or grossly bloody diarrhea Documented baseline hemorrhoidal bleeding was not considered grade 4. A secondary endpoint included proctitis, which was assessed using guidelines outlined by the NCI Common Toxicity Criteria, including: Grade 0—None Grade 1—Increased stool frequency, occasional blood-streaked stools or rectal discomfort, not requiring medication Grade 2—increased stool frequency, bleeding, mucous discharge or rectal discomfort requiring medication Grade 3—increased stool frequency/diarrhea requiring parenteral support, rectal bleeding requiring transfusion, or persistent mucus discharge necessitating the use of pads Grade 4—perforation, bleeding or necrosis, or other life-threatening complications requiring surgical intervention
# radiation enteritis [4] = conditions: related 5-ASA drugs; cited from earlier work
# [5] = 2250 mg twice daily, versus placebo
smiles,measurement,setting,value
O=C(O)CCNC(=O)c1ccc(/N=N/c2ccc(O)c(C(=O)O)c2)cc1 [balsalazide disodium],"abdominal pain (only statistically significant side effect), patients receiving the drug",[1]; versus 0% in those receiving placebo,11%
same,water solubility,[2],highly water-soluble
O=C(O)CCNC(=O)c1ccc(/N=N/c2ccc(O)c(C(=O)O)c2)cc1 [balsalazide],"adverse events reported in trials (headache, nausea, diarrhea, flatulence, fatigue)",[1]; versus placebo,comparable to those seen in patients receiving placebo
same,"proctitis mean index (symptom index: toxicity grade x days, summed)","radiation enteritis [3]; 2250 mg twice daily from 5 days prior to radiotherapy until 2 weeks after, vs. 77 in placebo (p=0.04), higher index = worse",35
same,nausea/vomiting seen,"radiation enteritis [3]; 2250 mg twice daily, 1 on placebo",2 patients
same,patients experiencing grade 4 diarrhea,"radiation enteritis [3]; 2250 mg twice daily, 2 placebo patients did",No patient
same,fatigue index,"radiation enteritis [3]; 2250 mg twice daily, placebo averaged 49",20
same,average weight change,"radiation enteritis [3]; 2250 mg twice daily, placebo lost greater than 3 pounds",gained weight
same,all toxicities except nausea/vomiting,radiation enteritis [3]; [5],appreciably lower
same,dysuria,radiation enteritis [3]; [5],appreciably lower
"Nc1ccc(O)c(C(=O)O)c1 [mesalamine, 5-aminosalicylic acid]",outcome in clinical trials for radiation enteritis,radiation enteritis [4],failure
O=C(O)c1cc(/N=N/c2ccc(O)c(C(=O)O)c2)ccc1O [osalazine],outcome in clinical trials for radiation enteritis,radiation enteritis [4],failure
